Source: patent US20080299076A1, “Compunds and compositions that cause non-apoptotic cell death and uses thereof” (priority 2006, published 2008)
≈ marks a conversion by molar mass, not a printed value.

Columns and labels:
[1] = tested on: BJ-TERT/LT/ST/RAS^V12 cells; assay: Annexin V staining; format: cell-based, human; conditions: erastin 9 μM
Experimental: The percentage of cells in the indicated Ml region were 6%, 6%, and 38% in untreated, erastin-treated (9 μM), and camptothecin-treated (1 μM), respectively.

HCT-116 cells = assay: Alamar Blue viability assay; format: cell-based; conditions: Homo sapiens; HCT-116 (+KRAS)
Experimental: (§1) Alamar Blue metabolism: 10% Alamar Blue was added to assay plates, which were then incubated for an additional 16 hours. Red fluorescence, resulting from reduction of Alamar Blue, was detected on a Victor3 platereader (ex: 530, em: 590).
(§2) Table 2. Activity of RAS-selective lethal compound erastin in tumor cell lines. IC50 values (ng/mL) are shown using the Alamar Blue viability assay. BJ engineered tumor cells express TERT, LT, ST, and oncogenic RAS. Isogenic RAS^V12 lacking cells are identical but lack HRAS^V12. BJ-DRD cells are derived from BJ cells and contain TERT, oncogenic RAS, a truncated from of p53 (p53DD) that disrupts the tetramerization of endogenous p53, a CDK4(R24C) mutant resistant to inhibition by p16INK4A and p151NK4B (the major negative regulators of CDK4) and cyclin D1. These latter protein substitute for LT. HCT-116, A549, Calu-1, and MIA PaCa-2 are tumor cells derived from cancers (colon, lung, lung and pancreatic, respectively) known to have activating mutations in RAS.

Calu-1 cells = assay: Alamar Blue viability assay; format: cell-based; conditions: Homo sapiens; Calu-1 (+KRAS)
Experimental: as §1, §2

BJ-TERT/LT/ST cells = assay: Alamar Blue viability assay; format: cell-based; conditions: Homo sapiens; BJ-TERT/LT/ST (lacking HRAS^V12)
Experimental: as §1, §2

A549 cells = assay: Alamar Blue viability assay; format: cell-based; conditions: Homo sapiens; A549 (+KRAS)
Experimental: as §1, §2

MIA PaCa-2 cells = assay: Alamar Blue viability assay; format: cell-based; conditions: Homo sapiens; MIA PaCa-2 (+KRAS)
Experimental: as §1, §2

SK-UT = assay: Response of tumor cell lines to erastin (dose-response); format: cell-based
Experimental: (§3) Given that oncogenic RAS activates at least four downstream pathways, analysis was performed to identify which downstream effects were necessary for erastin sensitivity. In certain embodiments, the invention provides that erastin inhibits growth and kills genuine tumor cells with RAS mutations. In other embodiments, the invention provides measures of the dose-response of 29 tumor cell lines to erastin, wherein there is at least 50% inhibition of viability in 18 of the cell lines (Table 4). Numerous sarcoma-derived tumor cell lines were sensitive to erastin, consistent with the fact that erastin was discovered in an engineered tumor cell line created from human fibroblasts.

HL-60 = assay: as above; format: cell-based
Experimental: as §3

SVR = assay: as above; format: cell-based
Experimental: as §3

SK-LMS-1 = assay: as above; format: cell-based
Experimental: as §3

U-2 OS = assay: as above; format: cell-based
Experimental: as §3

A431NS = assay: as above; format: cell-based; conditions: Epidermoid carcinoma
Experimental: as §3

LNCaP = assay: as above; format: cell-based
Experimental: as §3

Hs 925.T = assay: as above; format: cell-based
Experimental: as §3

HOS = assay: as above; format: cell-based
Experimental: as §3

MES-SA = assay: as above; format: cell-based
Experimental: as §3

SJSA-1 = assay: as above; format: cell-based
Experimental: as §3

SW982 = assay: as above; format: cell-based; conditions: SW982, synovial sarcoma
Experimental: as §3

A549 = assay: as above; format: cell-based; conditions: A549, lung carcinoma
Experimental: as §3

TC32 = assay: as above; format: cell-based
Experimental: as §3

HeLa = assay: as above; format: cell-based
Experimental: as §3

SW872 = assay: as above; format: cell-based
Experimental: as §3

TC71 = assay: as above; format: cell-based
Experimental: as §3

Hs51.T = assay: as above; format: cell-based
Experimental: as §3

C-33A = assay: as above; format: cell-based
Experimental: as §3

SK-N-MC = assay: as above; format: cell-based
Experimental: as §3

MX2 = assay: as above; format: cell-based
Experimental: as §3

SK-ES-1 = assay: as above; format: cell-based
Experimental: as §3

U973 = assay: as above; format: cell-based
Experimental: as §3

HCT 116 = assay: as above; format: cell-based; conditions: HCT 116, colorectal carcinoma
Experimental: as §3

**Q.** What does the source list for `CCOc1ccccc1-n1c(C(C)N2CCN(C(=O)COc3ccc(Cl)cc3)CC2)nc2ccccc2c1=O` (stereo not shown) [erastin, 2-(1-{4-[2-(4-Chloro-phenoxy)-acetyl]-piperazin-1-yl}-ethyl)-3-(2-ethoxy-phenyl)-3H-quinazolin-4-one]?
**A.** percentage of cells in M1 region (Annexin V staining) [1]: 6%; IC50 (HCT-116 cells): > 20 µg/mL; IC50 (Calu-1 cells): 1 µg/mL (≈ 1.83 µM); IC50 (BJ-TERT/LT/ST cells): > 20 µg/mL; IC50 (A549 cells): > 20 µg/mL; IC50 (MIA PaCa-2 cells): 5 µg/mL (≈ 9.14 µM); EC50 (SK-UT): 4 µM; Max % killing (SK-UT; Uterine, mixed mesodermal tumor): 73%; Erastin Sensitivity (maximum percent killing, as fraction) (HL-60; HL 60): 0.00; Max % killing (HL-60; HL-60, acute promyelocytic leukemia): 0%; EC50 (SVR; Mus musculus): 2.5 µM; Max % killing (SVR; Pancreatic carcinoma): 20%; EC50 (SK-LMS-1; Homo sapiens, SK-LMS-1): 6 µM; Max % killing (SK-LMS-1; SK-LMS-1, Leimyosarcoma, vulva): 100%; EC50 (U-2 OS; Homo sapiens, U2OS): 6 µM; Max % killing (U-2 OS; Osteosarcoma): 96%; Max % killing (A431NS): 0%; EC50 (LNCaP; Homo sapiens): 6 µM; Max % killing (LNCaP; prostate carcinoma): 32%; EC50 (Hs 925.T): 17 µM; Max % killing (Hs 925.T; Pagetoid sarcoma): 83%; EC50 (HOS; Homo sapiens): 17 µM; Max % killing (HOS; Osteosarcoma): 100%; EC50 (MES-SA; Homo sapiens): 3 µM; Max % killing (MES-SA; Uterine sarcoma): 100%; EC50 (SJSA-1; Homo sapiens, SJSA-1): 12 µM; Max % killing (SJSA-1; SJSA-1, Osteosarcoma): 100%; Max % killing (SW982): 0%; Max % killing (A549): 0%; EC50 (TC32; Homo sapiens, TC-32, TC32): 8 µM; Erastin Sensitivity (maximum percent killing, as fraction) (TC32; TC 32): 0.88; Max % killing (TC32; TC32, Peripheral neuroepithelioma): 88%; Max % killing (HeLa; Cervical carcinoma): 94%; EC50 (HeLa; Homo sapiens): 0.6 µM; Erastin Sensitivity (maximum percent killing, as fraction) (SW872; SW 872): 0.00; Max % killing (SW872; SW872, Liposarcoma): 0%; Erastin Sensitivity (maximum percent killing, as fraction) (TC71; TC 71): 0.92; Max % killing (TC71; TC71, Ewing sarcoma): 92%; EC50 (TC71; TC-71, TC71): 10 µM; EC50 (Hs51.T): 12 µM; Max % killing (Hs51.T; Spindle cell sarcoma): 88%; EC50 (C-33A; Homo sapiens): 0.6 µM; Max % killing (C-33A; cervical carcinoma): 21%; EC50 (SK-N-MC; Homo sapiens, SK-N-MC): 10 µM; Erastin Sensitivity (maximum percent killing, as fraction) (SK-N-MC; SK N MC): 0.95; Max % killing (SK-N-MC; SK-N-MC, Neuroepithelioma): 95%; EC50 (MX2; MX2): 18 µM; Max % killing (MX2; MX2, Uterine Sarcoma): 71%; EC50 (SK-ES-1; Homo sapiens, SK-ES1, SK-ES-1): 7 µM; Max % killing (SK-ES-1; SK-ES-1, Ewing sarcoma): 96%; Erastin Sensitivity (maximum percent killing, as fraction) (SK-ES-1; SKES1): 0.96; Erastin Sensitivity (maximum percent killing, as fraction) (U973; U937): 0.73; Max % killing (U973; U973, Acute myelogenous leukemia): 73%; EC50 (U973; U-973, U973): 10 µM; Max % killing (HCT 116): 0%
